{
  "source": "patent US20240335395A1",
  "about": "“COMPOSITIONS AND METHODS FOR PREVENTING AND/OR TREATING DISEASE ASSOCIATED WITH IL-23 EXPRESSION” (ALLSPIM, priority 2021, published 2024)",
  "key": {"IL-6": {"tested_on": "IL-6", "assay": "MSU-induced IL-6 in knee joint tissue (multiplex microassay)", "assay_type": "in vivo, mouse", "conditions": "2,4-D 100 mg/kg, CLC 1 mg/kg, DEX 0.5 mg/kg", "procedure": "Mice (six per group) were treated with 2,4-D (100 mg/kg or 20 mg/kg, i.p.), CLC (1 mg/kg or 0.2 mg/kg, i.p.), DEX (0.5 mg/kg or 0.1 mg/kg, i.p.), or vehicle (20% polyoxyethylenesorbitan monooleate (Tween 80) plus PBS) 30 min before intra-articular stimulus with MSU (100 μg/10 μL, i.a.). Six mice with intra-articular injection with PBS alone served as a negative control.\nInduction of MSU-Induced Knee Joint Inflammation. Male ICR (CD-1) mice (35-45 g, 10-12 weeks) were purchased from VitalRiver Inc (Beijing, China) and were kept in an animal care facility under controlled temperature of 21±1° C., humidity, and on a light/dark cycle, with ad libitum access to water and standard laboratory chow diet. Animal care and handling procedures were approved by the Animal Ethics Committee of GZUCM (Guangzhou University of Chinese Medicine). All efforts were made to minimize animal suffering and to reduce the number of animals used. Joint inflammation was induced by the intra-articular (i.a.) administration of MSU (200 μg/20 μl) into the right and left knee joints of mice under inhaled 3% isoflurane anesthesia. Control animals received an injection (i.a.) of sterile PBS (20 μL).\nCytokine Measurement. Mice were anesthetized and sacrificed. Knee joints were collected and frozen in liquid nitrogen. Samples were then homogenized in 500 μl of buffer containing protease inhibitors, centrifuged (3600 rpm, 4° C., 15 min) and supernatants were used to determine Th1/Th2/Th17 cytokine levels using a multiplex microassay (Qantibody® mouse TH17 Array 1 kit, Cat. No.: QAM-TH17-1; RayBiotech, Norcross, GA). Results were expressed as picograms (pg) of cytokine/mg of tissue.\nStatistical Analysis. […] For in vitro experiments, microassays were performed in quadruplicate. p<0.05 was considered significant (*p<0.05, **p<0.01, ***p<0.001)."}, "[1]": {"tested_on": "immune cells from the peritoneal cavity", "assay": "Endometriosis mouse model, immune cell proportions of the peritoneal cavity (flow cytometry)", "assay_type": "in vivo", "conditions": "50 mg/kg/day, 5 times a week, 6 weeks", "procedure": "Experimental design. Balb/C female mice (10 weeks old) were habituated for 3 days to take a jelly containing (group EDT+2,4D) or not (groups No EDT and EDT+Vehicle) the compound. Surgical implantation of endometrial tissue from syngenic female in peritoneum, was performed at day 0 for groups EDT+Vehicle and EDT+2,4D. […] The vehicle or treatment was then given 5 times a week (50 mg/kg/day) during 6 weeks. Mice were then sacrificed and the peritoneal inflammation was assessed. All the details of the protocol are depicted in FIG. 27. Cytokine measurement in cell-free peritoneal lavage. After mice were euthanized, 5 mL of PBS was injected into the peritoneal cavity and the diluted peritoneal fluid containing the cells was then retrieved. The cells were pelleted by centrifugation at 500×g 4° C. and the supernatant (cell-free peritoneal fluid) was frozen at −80° C. for subsequent cytokine concentration measurement by ELISA. Cytokine concentration was assessed by ELISA kit in the peritoneal fluid (ThermoFisher, Mouse IL-1β, IL6 and TNFalpha Uncoated ELISA). […] The optical density was read with the Clariostar Plus Microplate Reader (BMG LABTECH), through the Clario software. Concentrations were calculated from a standard curve according to the manufacturer's protocol. Phenotypic study of immune cells from the peritoneal cavity assessed by flow cytometry. The pelleted peritoneal cells were resuspended in PBS-2% FBS and counted. One million cells were stained with the following fluorophore-conjugated antibodies purchased from BioLegend: CD45 BV510, CD11b APC-Cy7, CD11c PE, F4/80 BV711, CD80 PE Cy5, CD206 AF647, Ly-6C, PE-Cy7, CCR2 BV786 et CXCR4 BV421, CD45R/B220 PE Texas-Red, CD3E FITC, NK1.1 BV605 and CD69 PerCP-Cy5.5, Zombie-UV. Cells were incubated 20 min in the dark at 4° C., washed with PBS-2% FBS, and were fixed with paraformaldehyde 4% in 5 mL round-bottom polystyrene tubes (Falcon™ 352054). Compensation was adjusted with Ultracomp beads (ThermoFisher). […] All data were collected on LSR Fortessa flow cytometer (BD Bioscience, USA) and analyzed with FlowJo software. […]"}},
  "data": [
    {"smiles": "COc1cc(O)c(OC)c(O)c1C(=O)/C=C/c1ccccc1", "note": "[2,4-D, 2′,4′-dihydroxy-3′,6′-dimethoxychalcone]", "values": [
      {"measurement": "decrease of IL-6 in knee joint tissue", "setting": "IL-6", "result": 7.6, "unit": "fold"},
      {"measurement": "global T cell proportion", "setting": "[1]", "result": "did not affect"},
      {"measurement": "proportion of NK cells amongst the peritoneal cells", "setting": "[1]", "result": "significantly reduced"},
      {"measurement": "proportion of macrophages", "setting": "[1]", "result": "not changed"}
    ]}
  ]
}
